Data on 16 molecules can be found in US9725445B2, “Cycloalkyl nitrile pyrazolo pyridones as Janus kinase inhibitors” (Merck Sharp & Dohme Corp., priority 2013, dated 2017).

The target of the assay is JAK1 (Homo sapiens (Human), UniProt P23458). In words: Jak biochemical HTRF assay, JAK1. The note with it: HTRF biochemical assay, recombinant GST-tagged catalytic domain; read-out: JAK1 IC50. The protocol:
Jak Biochemical HTRF Assay Protocol
The ability of compounds to inhibit the activity of JAK1, JAK2, JAK3, and Tyk2 was measured using a recombinant purified GST-tagged catalytic domain for each enzyme (Invitrogen JAK1 #M4290, JAK2 #M4290, JAK3 #M4290, Tyk2 #M4290) in an HTRF format biochemical assay. […] The basic assay protocol is as follows: First, 250 nL of diluted compounds in DMSO were dispensed into the wells of a dry 384-well Black plate (Greiner #781076) using a Labcyte Echo 555 acoustic dispenser. Subsequent reagent additions employed an Agilent Bravo. […] After equilibration, 2 μL of 10×ATP in 1× assay buffer was added to initiate the kinase reaction and the plates were shaken and then incubated at room temperature for 120 minutes. […] Plates were shaken and centrifuged and then incubated 60 minutes at room temperature and then read on a Perkin Elmer Envision (λex=337 nm, λem=665 and 615 nm, TRF delay time=20 μs). HTRF signal=10,000*665 nm reading/615 nm reading. After normalization to untreated controls, the percent inhibition of the HTRF signal at each compound concentration was calculated. The plot of percent inhibition versus the log of compound concentration was fit with a 4-parameter dose response equation to calculate IC50 values.
Final Reaction Conditions were:
Examples of the instant invention were evaluated in JAK1 and JAK2 in vitro binding assays.

The structures appear in SMILES notation.

Chain of JAK1 (P23458 875-1153): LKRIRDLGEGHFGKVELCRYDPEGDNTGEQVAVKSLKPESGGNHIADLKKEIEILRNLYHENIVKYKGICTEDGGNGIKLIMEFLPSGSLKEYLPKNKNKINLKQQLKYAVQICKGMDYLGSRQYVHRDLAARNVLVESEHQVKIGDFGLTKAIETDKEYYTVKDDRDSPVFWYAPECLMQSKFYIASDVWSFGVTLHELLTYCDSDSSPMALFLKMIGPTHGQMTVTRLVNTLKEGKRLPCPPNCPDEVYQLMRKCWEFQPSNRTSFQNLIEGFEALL

Consider `CC1NCc2cc(Nc3nn([C@H]4CCCC[C@@H]4C#N)c4cc[nH]c(=O)c34)ccc21` (mixture of isomers) [Example 12-3, (1S,2S)-2-(3-{[(1S and 1R)-1-methyl-2,3-dihydro-1H-isoindol-5-yl]amino}-4-oxo-4,5-dihydro-1H-pyrazolo[4,3-c]pyridin-1-yl)cyclohexanecarbonitrile], for which the IC50 is 0.81 nM. The value for `N#C[C@@H]1CCCC[C@@H]1n1nc(Nc2ccc(F)cc2)c2c(=O)[nH]ccc21` (racemic) [Example 1-1, (cis)-2-{3-[(4-Fluorophenyl)amino]-4-oxo-4,5-dihydro-1H-pyrazolo[4,3-c]pyridin-1-yl}cyclohexanecarbonitrile] was 2.5 nM; that for `N#C[C@H]1CCCC[C@@H]1n1nc(Nc2ccc(F)cc2)c2c(=O)[nH]ccc21` (racemic) [Example 2-1, (trans)-2-{3-[(4-Fluorophenyl)amino]-4-oxo-4,5-dihydro-1H-pyrazolo[4,3-c]pyridin-1-yl}cyclohexanecarbonitrile] was 0.56 nM; that for `N#C[C@H]1CCCC[C@@H]1n1nc(Nc2ccc([C@]3(O)CC[C@@H](C(=O)O)CC3)cc2)c2c(=O)[nH]ccc21` (racemic) [Example 17-1, (1R,4S and 1S,4R)-4-(4-(1-((1S,2S)-2-Cyanocyclohexyl)-4-oxo-4,5-dihydro-1H-pyrazolo[4,3-c]pyridin-3-ylamino)phenyl)-4-hydroxycyclohexanecarboxylic acid] was 0.095 nM. On to `CC(C)OC(=O)C(C)(C)C(O)(c1ccc(Nc2nn([C@H]3CCCC[C@@H]3C#N)c3cc[nH]c(=O)c23)cc1)C(F)(F)F` (single isomer, unassigned) [Example 3-119, (R or S) Isopropyl 3-(4-((1-((1S,2S)-2-cyanocyclohexyl)-4-oxo-4,5-dihydro-1H-pyrazolo[4,3-c]pyridin-3-yl)amino)phenyl)-4,4,4-trifluoro-3-hydroxy-2,2-dimethylbutanoate], for which the IC50 worked out at 5.3 nM.

For the molecule `CC(C)OC(=O)C(C)(C)C(O)(c1ccc(Nc2nn([C@H]3CCCC[C@@H]3C#N)c3cc[nH]c(=O)c23)cc1)C(F)(F)F` (single isomer, unassigned) [Example 3-120, (R or S) Isopropyl 3-(4-((1-((1S,2S)-2-cyanocyclohexyl)-4-oxo-4,5-dihydro-1H-pyrazolo[4,3-c]pyridin-3-yl)amino)phenyl)-4,4,4-trifluoro-3-hydroxy-2,2-dimethylbutanoate], the IC50 was determined as 1 nM. For the molecule `N#C[C@H]1CCCC[C@@H]1n1nc(Nc2ccc3c(c2)CC2(CC2)C3(O)C(F)(F)F)c2c(=O)[nH]ccc21` (single isomer, unassigned) [Example 3-123, (1S,2S)-2-(3-(((R or S)-1′-hydroxy-1′-(trifluoromethyl)-1′,3′-dihydrospiro[cyclopropane-1,2′-inden]-5′-yl)amino)-4-oxo-4,5-dihydro-1H-pyrazolo[4,3-c]pyridin-1-yl)cyclohexanecarbonitrile], the IC50 was found to be 0.18 nM. Take `N#C[C@H]1CCCC[C@@H]1n1nc(Nc2ccc3c(c2)CC2(CC2)C3(O)C(F)(F)F)c2c(=O)[nH]ccc21` (single isomer, unassigned) [Example 3-124, (1S,2S)-2-(3-(((R or S)-1′-hydroxy-1′-(trifluoromethyl)-1′,3′-dihydrospiro[cyclopropane-1,2′-inden]-5′-yl)amino)-4-oxo-4,5-dihydro-1H-pyrazolo[4,3-c]pyridin-1-yl)cyclohexanecarbonitrile]: the IC50 stood at 0.23 nM. With `CC1c2cc(Nc3nn([C@H]4CCCC[C@@H]4C#N)c4cc[nH]c(=O)c34)ccc2S(=O)(=O)N1CC(F)(F)F` (single isomer, unassigned) [Example 3-128, (1S,2S)-2-(3-(((R or S)-3-methyl-1,1-dioxido-2-(2,2,2-trifluoroethyl)-2,3-dihydrobenzo[d]isothiazol-5-yl)amino)-4-oxo-4,5-dihydro-1H-pyrazolo[4,3-c]pyridin-1-yl)cyclohexanecarbonitrile] the figure was 0.095 nM; with `CC1c2cc(Nc3nn([C@H]4CCCC[C@@H]4C#N)c4cc[nH]c(=O)c34)ccc2S(=O)(=O)N1CC(F)(F)F` (single isomer, unassigned) [Example 3-129, (1S,2S)-2-(3-(((R or S)-3-methyl-1,1-dioxido-2-(2,2,2-trifluoroethyl)-2,3-dihydrobenzo[d]isothiazol-5-yl)amino)-4-oxo-4,5-dihydro-1H-pyrazolo[4,3-c]pyridin-1-yl)cyclohexanecarbonitrile], 1.1 nM; with `CC(C)(C)OC(=O)C1CCC(N2Cc3cc(Nc4nn([C@H]5CCCC[C@@H]5C#N)c5cc[nH]c(=O)c45)ccc3C2=O)CC1` (single isomer, unassigned) [Example 3-134, (cis or trans)tert-butyl 4-(5-((1-((1S,2S)-2-cyanocyclohexyl)-4-oxo-4,5-dihydro-1H-pyrazolo[4,3-c]pyridin-3-yl)amino)-1-oxoisoindolin-2-yl)cyclohexanecarboxylate], 0.16 nM.

`CC(C)(C)OC(=O)C1CCC(N2Cc3cc(Nc4nn([C@H]5CCCC[C@@H]5C#N)c5cc[nH]c(=O)c45)ccc3C2=O)CC1` (single isomer, unassigned) [Example 3-135, (cis or trans)tert-butyl 4-(5-((1-((1S,2S)-2-cyanocyclohexyl)-4-oxo-4,5-dihydro-1H-pyrazolo[4,3-c]pyridin-3-yl)amino)-1-oxoisoindolin-2-yl)cyclohexanecarboxylate]: the IC50 was 0.22 nM. On to `CC1(C)C(O)c2cc(Nc3nn([C@H]4CCCC[C@@H]4C#N)c4cc[nH]c(=O)c34)ccc2S1(=O)=O` (single isomer, unassigned) [Example 3-172, (1S,2S)-2-(3-{[(3S or 3R)-3-hydroxy-2,2-dimethyl-1,1-dioxido-2,3-dihydro-1-benzothiophen-5-yl]amino}-4-oxo-4,5-dihydro-1H-pyrazolo[4,3-c]pyridin-1-yl)cyclohexanecarbonitrile], for which the IC50 worked out at 0.39 nM. In the case of `CC1(C)C(O)c2cc(Nc3nn([C@H]4CCCC[C@@H]4C#N)c4cc[nH]c(=O)c34)ccc2S1(=O)=O` (single isomer, unassigned) [Example 3-173, (1S,2S)-2-(3-{[(3R or 3S)-3-hydroxy-2,2-dimethyl-1,1-dioxido-2,3-dihydro-1-benzothiophen-5-yl]amino}-4-oxo-4,5-dihydro-1H-pyrazolo[4,3-c]pyridin-1-yl)cyclohexanecarbonitrile], the IC50 was determined as 0.094 nM. Regarding `CC(C)(C)N1Cc2cc(Nc3nn([C@H]4CCCCC[C@@H]4C#N)c4cc[nH]c(=O)c34)ccc2S1(=O)=O` (single isomer, unassigned) [Example 3-176, (1S,2S or 1R,2R)-2-{3-[(2-tert-butyl-1,1-dioxido-2,3-dihydro-1,2-benzisothiazol-5-yl)amino]-4-oxo-4,5-dihydro-1H-pyrazolo[4,3-c]pyridin-1-yl}cycloheptanecarbonitrile], the IC50 turned out to be 1.9 nM. The value for `CC(C)(C)N1Cc2cc(Nc3nn([C@@H]4CCCCC[C@H]4C#N)c4cc[nH]c(=O)c34)ccc2S1(=O)=O` (single isomer, unassigned) [Example 3-177, (1R,2R or 1S,2S)-2-{3-[(2-tert-butyl-1,1-dioxido-2,3-dihydro-1,2-benzisothiazol-5-yl)amino]-4-oxo-4,5-dihydro-1H-pyrazolo[4,3-c]pyridin-1-yl}cycloheptanecarbonitrile] was 0.046 nM.
